Data from ChEMBL document CHEMBL1777675, “N-hydroxy-N'-aminoguanidines as anti-cancer lead molecule: QSAR, synthesis and biological evaluation” (Bioorg Med Chem Lett, 2011).

How the values were obtained:
[1] = test system: HL-60; test: Anticancer activity against human HL60 cells; assay type: functional, cell-based
[2] = Cytotoxicity against human HeLa cells; assay type: cell-based
[3] = Cytotoxicity against african green monkey Vero cells; assay type: cell-based; conditions: chlorocebus sabaeus
[4] = test system: L1210; test: Cytotoxicity against mouse L1210 cells after 65 hrs by MTS/PES microculture tetrazolium assay; assay type: functional, cell-based; conditions: L1210, 65 h

N=C(NO)N/N=C/c1ccc(Cl)cc1
IC50 [1]: > 100 µM
CC50 [2]: > 100 µM
CC50 [3]: > 100 µM

CN(C)c1ccc(/C=N/NC(=N)NO)cc1
IC50 [1]: > 100 µM
CC50 [2]: > 100 µM
CC50 [3]: > 100 µM

N=C(NO)N/N=C/c1ccc(O)cc1
IC50 [1]: > 100 µM
CC50 [2]: > 100 µM
CC50 [3]: > 100 µM

COc1ccc(/C=N/NC(=N)NO)cc1
IC50 [1]: > 100 µM
CC50 [2]: > 100 µM
CC50 [3]: > 100 µM

COc1ccc(/C=N/NC(=N)NO)cc1O
IC50 [1]: > 100 µM
CC50 [2]: > 100 µM
CC50 [3]: > 100 µM

N/C(=N\O)N/N=C/c1ccccc1O
IC50 [1]: 95 µM
CC50 [2]: > 100 µM
CC50 [3]: > 100 µM

N=C(NO)N/N=C/c1ccccc1Cl
IC50 [1]: 60 µM
CC50 [2]: > 100 µM
CC50 [3]: > 100 µM

COc1ccccc1/C=N/N=C(\N)NO
IC50 [1]: > 100 µM
CC50 [2]: > 100 µM
CC50 [3]: > 100 µM

CS(=O)(=O)Oc1ccc(/C=N/NC(=N)NO)cc1
IC50 [4]: 14.8 µM

CCCCCCOc1ccc(/C=N/NC(=N)NO)cc1
IC50 [4]: 7.8 µM

CCCCOc1ccc(/C=N/NC(=N)NO)cc1
IC50 [4]: 8.53 µM

Cc1ccn(C)c1/C=N/NC(=N)NO
IC50 [4]: 2.7 µM

O=C(NO)N/N=C\C1=CCc2c(Cl)cc(Cl)cc2C1=O
IC50 [4]: 28.2 µM

CC(C)c1ccc2c(c1)C(=O)C(/C=N\NC(=O)NO)=CC2
IC50 [4]: 32.2 µM

O=C(NO)N/N=C/C1CC2C=CC1C2 (configuration not stated)
IC50 [4]: 10.6 µM

N=C(NO)N/N=C/c1cc2ccccc2cn1
IC50 [4]: 3.3 µM

N=C(NO)N/N=C1\C(=O)Nc2ccccc21
IC50 [4]: 48.4 µM

O=C(NO)N/N=C/C1CCCCC1
IC50 [4]: 21.2 µM

N=C(NO)N/N=C/c1ccco1
IC50 [1]: > 100 µM
CC50 [2]: > 100 µM
CC50 [3]: > 100 µM

Cc1ccccc1/C=N/NC(=N)NO
IC50 [1]: > 100 µM
CC50 [2]: > 100 µM
CC50 [3]: > 100 µM

Cc1ccc(/C=N/NC(=N)NO)cc1
IC50 [1]: 67 µM
CC50 [2]: > 100 µM
CC50 [3]: > 100 µM

N=C(NO)N/N=C/c1ccccc1
IC50 [1]: 62 µM
CC50 [2]: > 100 µM
CC50 [3]: > 100 µM

N=C(NO)N/N=C/c1c2ccccc2cc2ccccc12
IC50 [1]: 11 µM
CC50 [2]: > 100 µM
CC50 [3]: > 100 µM

Cc1ccsc1/C=N/N=C(/N)NO
IC50 [4]: 33.2 µM

N/C(=N/N=C/c1ccccn1)NO
IC50 [4]: 10.9 µM

COc1cccc(/C=N/NC(=N)NO)c1
IC50 [4]: 16 µM

Cc1cccc(/C=N/N=C(\N)NO)n1
IC50 [4]: 42.1 µM

N/C(=N\O)N/N=C/c1cccc(C(F)(F)F)c1
IC50 [4]: 15.1 µM

N/C(=N\O)N/N=C/c1cccs1
IC50 [4]: 34.1 µM

N/C(=N\O)N/N=C/c1cccc(I)c1
IC50 [4]: 12.5 µM

N=C(NN)NO
IC50 [4]: 126 µM
